From a melting point compilation (Tetko et al.; mined from patent text by program, amines drawn as free bases though some values may be those of a salt)

Row | melting point [°C] | SMILES
1 | 169 to 170 | COc1cc(OC)c2cnc(-c3cc(C)c(OCCO)c(C)c3)nc2c1
2 | 250 | Cc1ccc(NC(=O)c2c(C)cccc2NC(=O)OC(C)(C)C)cc1
3 | 145 to 146 | CCOC(=O)C1C=CC(c2ccccc2)n2c(=O)n(CCl)c(=O)n21 (stereo unspecified)
4 | 156 to 158 | COc1cc2c(c3c1OC(C)(C)C3)C(c1ccccc1)=NC(CO)C2 (stereo unspecified)
5 | 237 to 239 | Cc1ccc2c(n1)C(=O)N(c1cccc(S(C)(=O)=O)c1C)C2=O
6 | 153 | COc1ccc(Cl)cc1-c1nnn(-c2ccc(C(F)(F)F)cc2Cl)c1N
7 | 144 | Cc1c(-c2ccccc2)oc(=O)n1C1CCN(CCc2ccccc2)CC1
8 | 152 | COC(=O)N1CC[C@H](Nc2nc3cncnc3n2Cc2ccc(F)cc2)[C@H](C)C1 (relative stereo)
9 | 76 to 78 | CCCCc1ccc(C#Cc2ccc(C=O)cc2)cc1
10 | 140 to 142 | COc1cc(-n2nc3ccc(Cl)cn3c2=O)c(F)cc1Cl
11 | 115 to 117 | COc1cc(Br)cc2c(N(C)C)cc(C)nc12
12 | 104 to 107 | NC(N)C(=O)c1ccccc1
13 | 183 to 185 | CNC1(c2ccccc2Cl)C(=O)N(S(=O)(=O)c2ccc(OC)cc2OC)c2c(F)cc(Cl)cc21 (stereo unspecified)
14 | 206 to 207 | CCOC(=O)c1cn2c(cc(Cl)c3ccc(Br)cc32)n1
15 | 258 to 260 | N#Cc1ccc(-c2ccc3c(c2)C2(CCCCC2)C(=O)N3)cc1F
16 | 133 | O=C(O)CCNC(=O)C(=Cc1cccc2ccccc12)CS
17 | 152 to 154 | CN(C(=O)/C=C/CSc1nc(N)cc(Cl)n1)c1ccccc1
18 | 147 | CC(C)CCNC(=O)c1ccccc1-c1ccccc1CNC(=O)c1ccccc1
19 | 73.6 | CCCNc1ccc(C=O)cc1[N+](=O)[O-]
20 | 82 to 84 | COC(=O)C=Cc1ccc(C=O)cc1
21 | 177 to 179 | COC(=O)COc1cccc2c(O)cccc12
22 | 55 to 57 | Cc1cccc(C2(C)OC(C)C(C)O2)c1NC(=O)CCl (stereo unspecified)

Row | melting point [°C] | SMILES
23 | 242 to 243 | FC(F)(F)c1ccc2nc(-c3csc(Nc4c(Cl)cccc4Cl)n3)[nH]c2c1
24 | 110 to 111 | CN1CCN(c2cccc3ccc(OC(=O)c4ccc(Cl)cc4)cc23)CC1
25 | 127 to 128 | CCOC(=O)C(C#N)=NC(=CN1CCOCC1)CC
26 | 220 | O=C(Nc1cccc2cnccc12)NC1CC2(CCOCC2)Oc2ccccc21 (stereo unspecified)
27 | 225 to 227 | C[C@H]1[C@H](N)CN1c1cc2c(cc1F)c(=O)c(C(=O)O)cn2C(C)(C)C (relative stereo)
28 | 220 to 221 | CC(=O)OC1CC2=CC(=O)C3C4CCCC4(C)CCC3C2(C)C(OC(C)=O)C1 (stereo unspecified)
29 | 152 to 153 | Cc1cc(-c2cnn(-c3ccccc3)c2)ccc1OC=C1C=CC=CC1n1nnn(C)c1=O (stereo unspecified)
30 | 58 to 59 | COc1cccc(CSCCNC(=O)c2c(Cl)cccc2OC)c1
31 | 331 to 332 | Cc1cnc2[nH]cc(/C=C3\N=C(N4CCN(c5ccccc5)CC4)NC3=O)c2c1
32 | 95 to 96 | O=C1NCCc2ccccc2C1c1ccccc1 (stereo unspecified)
33 | 202 to 203 | O=C1N[C@H](Cc2ccc(C(F)(F)F)cc2)[C@H](c2cccc3ccccc23)O1 (racemic)
34 | 199 to 200 | NC1N=C(Cl)C=C(Cl)N1c1c([N+](=O)[O-])cc(C(F)(F)F)c(Cl)c1[N+](=O)[O-] (stereo unspecified)
35 | 139 to 141 | CCCCNCc1nc(-c2ccc3c(c2)Nc2ccccc2S3)cs1
36 | 176 to 179 | COc1cccc2c1CN(Cc1c[nH]c3ccccc13)C2
37 | 145 | Cc1ccc(S(=O)(=O)N2CCC(C#N)(c3ccc(Cl)cc3Cl)CC2)cc1
38 | 94 to 95 | CCCCC1=C(/C=C/C(=O)Oc2ccc([N+](=O)[O-])cc2)CCc2cc(OC)ccc21
39 | 175 | COc1ccc2ccc(N3C(=O)c4ccccc4C3OCc3cccnc3)nc2n1 (stereo unspecified)
40 | 182 to 183 | COC(=O)CS(=O)(=O)N1CC=C(c2ccc(-c3ccccc3)cc2)CC1
41 | 146 to 147 | Cc1oc(-c2ccccc2)nc1COc1cccc(CON2C(=O)c3ccccc3C2=O)c1
42 | 133 to 136 | CC(=O)OC1CCC2(C)C(CCC3C4CCC(C(C)=O)C4(C)CC4OC432)C1 (stereo unspecified)
43 | 245 to 247 | Sc1n[nH]c(-n2cccn2)n1
44 | 136 to 137 | O=c1nc(-c2ccccn2)sc2ccc(OCCCCCCO)cc12

Row | melting point [°C] | SMILES
45 | 140 | CCCCOc1ccc(C(=O)Nc2ccc3ccc(Cl)nc3n2)cc1
46 | 209 to 212 | CCCCCCCNC(=O)Nc1ccccc1C(=O)N1CCN(c2ccccc2OC)CC1
47 | 103 to 104 | CCc1cc(CC)c(-c2c(OCCl)c(C)nn(C)c2=O)c(CC)c1
48 | 148 to 150 | CC(=O)OC1CC2C1N(C(C)=O)C(=O)N2C(C)=O (stereo unspecified)
49 | 139 to 143 | Cc1ccc2c(c1)c(N1CCN(C(=O)c3cccs3)CC1)c(C#N)c(=O)n2CCN1CCCC1
50 | 109 to 112 | CC(C)(C)NC(=O)[C@@H]1[C@H](O)CCN1C(=O)[C@@H](O)[C@H](Cc1ccccc1)NC(=O)[C@H](CC(N)=O)NC(=O)OCc1ccccc1
51 | 126 to 127 | C[C@@H]1Cc2cc3c(cc2C(c2ccc([N+](=O)[O-])c(Cl)c2)=NN1C(=S)NN)OCO3
52 | 82 to 84 | CCOC(=O)c1cc2c3n(ccc-2n1)CC(C=O)=N3
53 | 138 to 139 | CCCCOc1c(CNC(=O)OC(C)(C)C)n(CC(C)(C)C)c(=O)c2ccc(/C=C/C(=O)O)cc12
54 | 130 to 132 | COCc1nc2nccnc2c(=O)n1C
55 | 82 | COC(=O)c1ccc(CCc2ccc(OC)cc2)nc1
56 | 174 | O=C(O)c1cc(NCc2ccccc2)ccc1O
57 | 272 to 273 | O=C(Nc1ccnnc1)Nc1cc(F)cc(F)c1
58 | 114 to 115 | CCOC(=O)c1ccc(-c2ccc(OC)c(Br)c2)cc1
59 | 159 to 161 | CC(C)(C(=O)O)c1cn2nc(Cl)ccc2n1
60 | 154 to 155 | CCOC(=O)c1cn(Cc2ccccc2)nc1OCc1ccc(OCc2nc(-c3ccccc3)oc2C)c(OC)c1
61 | 291 to 294 | CC(C)(C)NC1=NS(=O)(=O)c2ccc(Cl)cc2N1
62 | 186 to 190 | CC(C)CC(=O)N1CCC(c2nc3cc(-c4ccc(C(N)=O)c(F)c4)ccc3o2)CC1
63 | 58 | C=C1C[C@@H](O)[C@H](/C=C/[C@@H](O)CCCCC)[C@H]1Cc1cccc(OCc2ccccc2)c1
64 | 175 to 177 | CNC(=O)[C@@H](C[C@H](O)[C@H](CC1CCCCC1)NC(=O)OC(C)(C)C)C1(O)CCCCC1
65 | 133 to 136 | CCC1(C)CC(O)C2(C)CCC3c4ccc(OC)cc4CCC3C12 (stereo unspecified)

Row | SMILES | melting point [°C]
66 | CCCOC(=O)c1cncn1C(c1ccccc1)c1ccccc1 | 81
67 | O=C(CNC(=O)c1ccc(C2=NOC(c3cc(Cl)cc(C(F)(F)F)c3)(C(F)(F)F)C2)c2ccccc12)NCC(F)(F)F (stereo unspecified) | 107 to 108
68 | Cn1cc2c(c1)-c1ccc(Cl)cc1C(c1ccccc1F)=NC2 | 142 to 144
69 | CC(C)n1cc(C(=O)O)c2ccc([N+](=O)[O-])cc21 | 242 to 243
70 | Oc1ccc(C2(c3ccc(O)cc3)c3ccccc3-c3ccccc32)cc1 | 215
71 | CCC(Oc1c(F)ccc(C)c1F)C1=NCCN1 (stereo unspecified) | 70.5 to 71
